Series [1] deals with CCl4-induced hepatotoxicity in mice. Description: Synergistic hepatoprotective activity of DBPs against CCl4-induced hepatotoxicity (Example IV). The note with it: CCl4 1 ml/kg, Ursocol 250 mg/kg b.w., mean ± SEM, n=4.
Series [2] concerns alcohol-induced hepatotoxicity in mice. Description: Synergistic hepatoprotective activity of DBPs against alcohol-induced hepatotoxicity (Example IV). The note with it: for ACP / ALP / ALT / AST / Total Protein: alcohol 5 g/kg, Ursocol 250 mg/kg b.w., mean ± SEM, n=4.
Method: Hepatotoxicity was induced by oral administration of alcohol (ethanol: 5 g/kg) from stock 400 mg/ml twice daily for 15 days.
3-OH-DBP and 3,8-(OH)2-DBP were each separately suspended in 0.3% CMC and administered at a dose of 10 mg/kg body weight per orally for 15 days. During the 15 days treatment, body weight, food intake, and water intake were monitored at regular intervals. Following 15 days of treatment physical parameters (relative organ weight) and biochemical parameters (plasma total protein content, ALT, AST, ALP, and ACP) were studied.
3-OH-DBP (2 mg/kg body weight, 10 mg/kg body weight);
3,8-(OH)2-DBP (10 mg/kg body weight, 50 mg/kg body weight); and

For the compound `C[C@H](CCC(=O)O)[C@H]1CC[C@H]2[C@@H]3[C@@H](O)C[C@@H]4C[C@H](O)CC[C@]4(C)[C@H]3CC[C@]12C` [Ursocol, ursodeoxycholic acid, reference compound], in series [1] (female mice), the ACP is reported as 29 ± 3.3 U/L, the ALP worked out at 45 ± 6.9 IU/L, the ALT is 50 ± 5.6 IU/L and the AST is given as 49 ± 6.8 IU/L. For the same compound, the “Total Protein” value in series [1] (female mice) stood at 6 ± 0.22 g/dL. In series [1] (male mice), the ACP was 22 ± 4.4 ^ U/L, the ALP is listed as 60 ± 9.9 ^ IU/L, the ALT is 21 ± 2.6 ^ IU/L and the AST is 18 ± 3.4 ^ IU/L. Besides, the “Total Protein” value in series [1] (male mice) was 6 ± 0.55 g/dL. Further, in series [2] (female mice), the ACP was determined as 2.4 ± 0.47 U/L, the ALP stood at 49 ± 6.5 IU/L, the ALT was found to be 26.63 ± 2.85 IU/L and the AST is reported as 25.39 ± 4.08 IU/L. Further, the “Total Protein” value in series [2] (female mice) is given as 5.97 ± 0.53 g/dL. Further, in series [2] (male mice), the ACP was 3.19 ± 0.36 U/L, the ALP is given as 86.1 ± 3.73 IU/L, the ALT was 26.6 ± 1.94 ^ IU/L and the AST is recorded as 24.3 ± 3.84 IU/L. Moreover, the “Total Protein” value in series [2] (male mice) is on record as 8.83 ± 0.16 g/dL. In addition, the Relative liver weight entry in series [2] (male mice, alcohol study of Example IV) is “significantly increased”.

The values above are taken from US20220071952A1, “METHODS OF TREATING AND PREVENTING HEPATOTOXICITY” (Natreon, Inc., priority 2020, published 2022).
